Assay [1] is described as follows: HEp-2 cell cytotoxicity, dose response, cytotoxicity control for RSV inhibitor project, HTS (AID 2410). Type of assay: functional. The conditions noted are these: human respiratory syncytial virus.
Another assay has as its system Vero. The assay is described as follows: cells. The format is functional, cell-based. The conditions noted are these: Chlorocebus sabaeus.
Assay [2] relates to Escherichia coli. The assay is described as follows: microbe, parasite or virus in culture.
Assay [3] deals with Escherichia coli. Nature of the assay: microbe, parasite or virus in culture. This is another data set of the same source.
Another assay concerns the target T1, Hexokinase HKDC1 (Homo sapiens, UniProt Q2TB90).
T1 sequence (Q2TB90 whole entry): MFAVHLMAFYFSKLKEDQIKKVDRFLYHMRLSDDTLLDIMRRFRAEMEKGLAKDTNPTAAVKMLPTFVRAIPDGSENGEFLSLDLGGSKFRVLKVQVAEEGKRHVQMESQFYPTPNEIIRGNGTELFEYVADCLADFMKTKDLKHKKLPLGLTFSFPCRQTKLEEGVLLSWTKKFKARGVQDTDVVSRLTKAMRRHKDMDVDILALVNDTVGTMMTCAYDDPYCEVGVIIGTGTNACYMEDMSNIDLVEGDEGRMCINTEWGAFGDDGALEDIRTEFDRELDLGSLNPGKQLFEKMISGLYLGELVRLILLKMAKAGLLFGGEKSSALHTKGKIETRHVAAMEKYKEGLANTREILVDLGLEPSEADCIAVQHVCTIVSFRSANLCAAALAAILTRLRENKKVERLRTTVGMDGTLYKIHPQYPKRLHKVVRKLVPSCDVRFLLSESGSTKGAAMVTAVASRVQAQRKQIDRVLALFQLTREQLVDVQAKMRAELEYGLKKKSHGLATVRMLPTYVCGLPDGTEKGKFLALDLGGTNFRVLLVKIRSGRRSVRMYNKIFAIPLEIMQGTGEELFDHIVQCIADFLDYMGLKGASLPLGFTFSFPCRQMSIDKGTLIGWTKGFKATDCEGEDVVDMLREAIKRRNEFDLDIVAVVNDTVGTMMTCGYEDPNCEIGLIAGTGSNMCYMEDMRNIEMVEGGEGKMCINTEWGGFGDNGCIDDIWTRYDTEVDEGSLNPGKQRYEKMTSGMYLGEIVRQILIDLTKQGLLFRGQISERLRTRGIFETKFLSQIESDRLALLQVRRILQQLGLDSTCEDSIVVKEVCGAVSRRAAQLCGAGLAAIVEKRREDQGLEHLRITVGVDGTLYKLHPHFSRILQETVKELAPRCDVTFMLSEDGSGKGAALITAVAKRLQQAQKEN
The assay is described as follows: HKDC1 hexokinase inhibitors, SAR follow-up, biochemical, set 2 (AID 588355). The format is functional.

The target in another assay is T2, Hexokinase-1 (Homo sapiens, UniProt P19367).
T2 sequence (P19367 whole entry): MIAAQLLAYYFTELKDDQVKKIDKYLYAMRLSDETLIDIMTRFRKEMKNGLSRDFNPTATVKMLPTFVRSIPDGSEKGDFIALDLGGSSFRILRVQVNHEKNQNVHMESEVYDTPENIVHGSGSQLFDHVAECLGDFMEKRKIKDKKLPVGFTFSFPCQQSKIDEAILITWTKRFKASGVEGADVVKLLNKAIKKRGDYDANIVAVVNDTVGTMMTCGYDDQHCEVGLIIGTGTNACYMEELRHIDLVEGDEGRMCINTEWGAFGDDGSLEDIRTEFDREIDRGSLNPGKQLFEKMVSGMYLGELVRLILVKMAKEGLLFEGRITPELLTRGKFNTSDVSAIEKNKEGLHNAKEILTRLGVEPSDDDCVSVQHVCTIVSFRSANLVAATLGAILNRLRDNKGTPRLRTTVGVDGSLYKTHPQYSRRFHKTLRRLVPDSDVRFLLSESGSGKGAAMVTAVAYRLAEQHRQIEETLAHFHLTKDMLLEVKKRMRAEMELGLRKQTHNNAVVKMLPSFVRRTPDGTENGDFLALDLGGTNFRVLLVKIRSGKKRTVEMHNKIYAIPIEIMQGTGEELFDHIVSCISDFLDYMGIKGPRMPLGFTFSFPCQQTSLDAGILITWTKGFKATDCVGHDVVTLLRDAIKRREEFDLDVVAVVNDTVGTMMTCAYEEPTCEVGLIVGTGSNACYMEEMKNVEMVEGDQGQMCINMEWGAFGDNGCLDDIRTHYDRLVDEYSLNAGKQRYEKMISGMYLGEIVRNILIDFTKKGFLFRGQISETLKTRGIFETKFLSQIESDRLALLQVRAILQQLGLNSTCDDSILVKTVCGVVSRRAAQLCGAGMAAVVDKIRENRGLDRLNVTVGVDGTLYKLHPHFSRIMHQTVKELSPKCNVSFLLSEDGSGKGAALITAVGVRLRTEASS
Nature of the assay: HK1 enzyme inhibition by HKDC1 hits, SAR follow-up, selectivity assay for HKDC1 inhibitor project, biochemical, set 2, resazurin fluorescence coupled readout (AID 588356). Type of assay: functional.

For assay [4], the target named is Luciferin 4-monooxygenase (Photuris pensylvanica, UniProt Q27757). The assay is described as follows: firefly luciferase enzyme inhibitors, dose response, counter-screen for HSF-1 reporter inhibitor project, biochemical, Cell Titer Glo, luminescence, cherry-picks (AID 588847). (A counterscreen serves to expose hits that act by an unwanted route or on another target.)
Luciferin 4-monooxygenase, sequence (Q27757 whole entry): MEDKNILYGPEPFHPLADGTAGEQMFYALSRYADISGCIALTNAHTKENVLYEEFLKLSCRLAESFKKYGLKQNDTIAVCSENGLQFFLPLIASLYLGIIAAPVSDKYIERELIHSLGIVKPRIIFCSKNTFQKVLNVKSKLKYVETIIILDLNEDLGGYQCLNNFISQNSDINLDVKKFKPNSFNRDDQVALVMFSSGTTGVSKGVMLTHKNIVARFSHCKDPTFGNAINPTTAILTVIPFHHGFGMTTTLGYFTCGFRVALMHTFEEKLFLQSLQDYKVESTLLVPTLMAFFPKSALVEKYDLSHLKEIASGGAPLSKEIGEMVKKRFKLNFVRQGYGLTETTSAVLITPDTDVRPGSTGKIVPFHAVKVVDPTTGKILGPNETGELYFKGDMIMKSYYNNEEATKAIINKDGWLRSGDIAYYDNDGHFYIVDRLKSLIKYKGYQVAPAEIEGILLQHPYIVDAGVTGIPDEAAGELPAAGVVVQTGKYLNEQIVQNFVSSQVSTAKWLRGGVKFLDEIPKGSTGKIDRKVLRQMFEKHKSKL

Assay [5] deals with T3, Heat shock factor protein 1 (Mus musculus, UniProt P38532).
T3 sequence (P38532 whole entry): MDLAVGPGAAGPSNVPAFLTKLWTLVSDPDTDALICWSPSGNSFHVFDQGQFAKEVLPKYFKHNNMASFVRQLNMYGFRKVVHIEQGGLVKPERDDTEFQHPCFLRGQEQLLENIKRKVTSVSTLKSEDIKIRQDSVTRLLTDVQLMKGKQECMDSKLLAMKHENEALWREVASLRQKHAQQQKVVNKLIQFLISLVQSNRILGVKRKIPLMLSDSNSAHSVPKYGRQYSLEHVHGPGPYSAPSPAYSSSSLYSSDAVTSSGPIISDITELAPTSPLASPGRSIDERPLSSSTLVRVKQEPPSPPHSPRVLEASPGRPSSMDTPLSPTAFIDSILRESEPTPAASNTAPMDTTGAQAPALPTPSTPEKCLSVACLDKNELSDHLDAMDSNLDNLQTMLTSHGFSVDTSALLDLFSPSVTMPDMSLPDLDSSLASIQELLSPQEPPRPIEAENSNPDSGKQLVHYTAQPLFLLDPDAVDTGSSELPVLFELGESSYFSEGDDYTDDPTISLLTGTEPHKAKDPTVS
Nature of the assay: inhibition of MG132-induced HSE-luciferase signal, confirmation, cell-based, NIH3T3, luminescence, dose retest (AID 2382).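 Further: NIH3T3 fibroblasts with HSF1-driven luciferase reporter stressed by proteasome inhibitor MG132; luminescence from HSF1-driven luciferase expression after 8 hours of MG132 stress.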 The format is functional.

Assay [6] addresses Guanyl-specific ribonuclease T1 (Aspergillus oryzae (strain ATCC 42149 / RIB 40), UniProt P00651). Nature of the assay: RNase T1 inhibitors, dose response, counter-screen for TPT1 inhibitor project, biochemical, fluorescence polarization, 1536-well (AID 2167).
The target in assay [7] is Likely tRNA 2'-phosphotransferase (Candida albicans (strain SC5314 / ATCC MYA-2876) (Yeast), UniProt Q5A7N4). Nature of the assay: TPT1 tRNA phosphotransferase inhibitors, dose response, biochemical, fluorescence polarization (AID 2160). On the technique in general: Fluorescence polarisation rises when a labelled molecule tumbles more slowly, as on binding a larger partner.
Likely tRNA 2'-phosphotransferase, sequence (Q5A7N4 whole entry): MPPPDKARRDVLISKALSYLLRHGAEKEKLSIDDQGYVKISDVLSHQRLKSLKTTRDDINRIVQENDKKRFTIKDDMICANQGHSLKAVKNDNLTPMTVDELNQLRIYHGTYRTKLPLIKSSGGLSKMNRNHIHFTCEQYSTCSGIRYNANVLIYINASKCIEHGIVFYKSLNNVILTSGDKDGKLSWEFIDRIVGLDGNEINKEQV

Assay [8] concerns the target Beta-adrenergic receptor kinase 1 (Homo sapiens, UniProt P25098). The assay is described as follows: aptamer displacement from bead-bound GRK2 – biochemical, cherry pick 1, bead flow cytometry, dose response (AID 504500). (In flow cytometry, cells or beads pass a laser one at a time.)

As a reminder, the CC50 is the concentration at which the toxic effect on the cells reaches its halfway point. Usually IC50 stands for the midpoint of a concentration-inhibition curve. One may read the AC50 as the concentration giving half of the maximal activity seen. What is called EC50 is the concentration giving half of the maximal effect.

Activity calls are given as the source filed them.

Beta-adrenergic receptor kinase 1, sequence (P25098 whole entry): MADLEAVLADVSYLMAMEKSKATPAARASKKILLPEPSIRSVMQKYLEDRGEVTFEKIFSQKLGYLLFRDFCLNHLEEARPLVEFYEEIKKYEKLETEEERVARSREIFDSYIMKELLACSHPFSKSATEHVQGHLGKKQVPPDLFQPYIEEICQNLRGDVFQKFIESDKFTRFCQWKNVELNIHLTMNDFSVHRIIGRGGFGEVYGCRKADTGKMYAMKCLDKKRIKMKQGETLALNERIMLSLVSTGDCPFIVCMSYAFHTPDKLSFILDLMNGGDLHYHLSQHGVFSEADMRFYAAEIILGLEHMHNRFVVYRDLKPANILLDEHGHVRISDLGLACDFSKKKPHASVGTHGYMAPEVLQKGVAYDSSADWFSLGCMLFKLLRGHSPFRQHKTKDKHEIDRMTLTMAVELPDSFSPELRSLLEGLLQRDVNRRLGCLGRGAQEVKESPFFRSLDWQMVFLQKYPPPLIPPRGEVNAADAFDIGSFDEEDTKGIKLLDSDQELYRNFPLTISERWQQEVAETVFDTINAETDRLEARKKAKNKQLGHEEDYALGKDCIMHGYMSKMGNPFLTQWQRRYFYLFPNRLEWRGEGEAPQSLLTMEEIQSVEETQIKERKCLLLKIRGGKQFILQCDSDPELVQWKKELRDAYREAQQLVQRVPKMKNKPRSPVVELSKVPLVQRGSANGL
Guanyl-specific ribonuclease T1, sequence (P00651 whole entry): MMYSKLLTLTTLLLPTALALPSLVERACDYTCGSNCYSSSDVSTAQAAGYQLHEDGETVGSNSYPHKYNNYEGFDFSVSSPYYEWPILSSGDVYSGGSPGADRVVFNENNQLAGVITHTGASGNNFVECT

`Cc1cccc(NC(=O)CSc2nc3ccccc3nc2N2CCCC2)c1`: the CC50 in [1] is 13.7 µM (active). In addition, the IC50 in the assay on Vero was > 25 µM (active).
On to `CCN(CC)CC(=O)c1c[nH]c2ccc(OC)cc12`, for which the AC50 is 25.6 µM (active) in the assay on Escherichia coli [2] and 26.5 µM (active) in the assay on Escherichia coli [3].
Turning to `CNc1cc2n(c(=O)n1)CCc1cc(OC)c(OC)cc1-2`, the IC50 at Hexokinase HKDC1 and at Hexokinase-1 was > 80 µM (inactive) throughout.
Consider `CC(C)(C)c1ccc(/C=N/Nc2cccc(C(=O)O)c2)cc1`, for which the AC50 in assay [4] was 3.37 µM (active). Besides, the EC50 in [5] was < 0.16 µM (active).
`NC(=O)c1cc[n+](CC2=C(C(=O)O)N3C(=O)[C@@H](NC(=O)[C@@H](c4ccccc4)S(=O)(=O)[O-])[C@H]3SC2)cc1` [CEFSULODIN SODIUM]: the IC50 was > 55.7 µM (not active) in assay [6] and 1.69 µM (active) in assay [7]. The EC50 in assay [8] was 0.07 µM (active).

The values above are taken from ChEMBL document CHEMBL1201862, “PubChem BioAssay data set” (2004).
